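A five-concentration, 48-hour dose response in 96-well plates underlies each endpoint, interpolated linearly between surrounding concentrations. GI50 is the concentration that inhibits growth by half.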 Active and inactive are the calls of the source. Rule as the data show it: active = GI50 up to about 1.1 µM and inactive = higher.
Key:
Assay in all cases: DTP human tumour cell line panel, 48 h
[1] = test system: K562
[2] = test system: UACC-62
[3] = test system: A498
[4] = test system: CAKI-1
[5] = test system: ACHN
[6] = test system: NCI-H23
[7] = test system: SK-MEL-28
[8] = test system: SR
[9] = test system: SNB-75
[10] = test system: MDA-MB-231
[11] = test system: SK-MEL-5
[12] = test system: SF-539
[13] = test system: HCC 2998
[14] = test system: OVCAR-4
[15] = test system: TK-10
[16] = test system: HOP-62
[17] = test system: RPMI-8226
[18] = test system: HOP-92
[19] = test system: HT-29
[20] = test system: HL-60
[21] = test system: UO-31
[22] = test system: SN12C
[23] = test system: SW-620
[24] = test system: NCI-H226
[25] = test system: HCT-15
[26] = test system: A549
[27] = test system: NCI-H522
[28] = test system: UACC-257
[29] = test system: KM12
[30] = test system: LOX IMVI
[31] = test system: SF-295
[32] = test system: SF-268
[33] = test system: MDA-MB-435
[34] = test system: DU-145
[35] = test system: M14
[36] = test system: Malme-3M
[37] = test system: OVCAR-3
[38] = test system: OVCAR-5
[39] = test system: NCI-H460
[40] = test system: NCI/ADR-RES
[41] = test system: T47D
[42] = test system: RXF 393
[43] = test system: U-251
[44] = test system: COLO 205
[45] = test system: SK-MEL-2
[46] = test system: MCF7
[47] = test system: SK-OV-3
[48] = test system: 786-0
[49] = test system: IGROV-1
[50] = test system: EKVX
[51] = test system: PC-3
[52] = test system: MOLT-4
[53] = test system: CCRF-CEM
[54] = test system: OVCAR-8
[55] = test system: MDA-N

Row | SMILES | GI50 [1] | GI50 [2] | GI50 [4] | GI50 [5] | GI50 [6] | GI50 [7] | GI50 [8] | GI50 [9] | GI50 [11] | GI50 [12] | GI50 [13] | GI50 [14] | GI50 [16] | GI50 [17] | GI50 [23] | GI50 [26] | GI50 [32] | GI50 [35] | GI50 [38] | GI50 [39] | also measured
1 | C[N+](C)(C)CCOP(=O)(O)OP(=O)([O-])OCC1CCC(n2ccc(N)nc2=O)O1 (centres undefined) | > 100 µM (inactive) | > 100 µM (inactive) | > 100 µM (inactive) | > 100 µM (inactive) | > 100 µM (inactive) | > 100 µM (inactive) | > 100 µM (inactive) | > 100 µM (inactive) | > 100 µM (inactive) | > 100 µM (inactive) | > 100 µM (inactive) | > 100 µM (inactive) | > 100 µM (inactive) | > 100 µM (inactive) | > 100 µM (inactive) | > 100 µM (inactive) | > 100 µM (inactive) | > 100 µM (inactive) | > 100 µM (inactive) | > 100 µM (inactive) | GI50 [3]: > 80.9 µM (inactive); GI50 [10]: 77.6 µM (inactive); GI50 [15]: > 100 µM (inactive); GI50 [18]: > 100 µM (inactive); GI50 [19]: > 100 µM (inactive); GI50 [20]: > 100 µM (inactive); GI50 [21]: > 100 µM (inactive); GI50 [22]: > 100 µM (inactive); GI50 [24]: > 100 µM (inactive); GI50 [25]: > 100 µM; GI50 [27]: > 100 µM (inactive); GI50 [28]: > 100 µM (inactive); GI50 [29]: > 100 µM (inactive); GI50 [30]: > 100 µM (inactive); GI50 [31]: > 100 µM (inactive); GI50 [33]: > 100 µM (inactive); GI50 [34]: > 100 µM (inactive); GI50 [36]: > 100 µM (inactive); GI50 [37]: > 100 µM (inactive)
2 | O=P(O)(Cc1ccccc1)OCC1(O)OCC(O)C(O)C1O (centres undefined) | > 10 µM (inactive) | > 10 µM (inactive) | > 10 µM (inactive) | > 10 µM (inactive) | > 10 µM (inactive) | > 10 µM (inactive) | > 10 µM (inactive) | > 10 µM (inactive) | > 10 µM (inactive) |  |  | > 10 µM (inactive) | > 10 µM (inactive) | > 10 µM (inactive) | > 10 µM (inactive) | > 10 µM (inactive) | > 10 µM (inactive) | > 10 µM (inactive) | > 10 µM (inactive) | > 10 µM (inactive) | GI50 [40]: > 10 µM (inactive); GI50 [41]: > 10 µM (inactive); GI50 [42]: > 10 µM (inactive); GI50 [43]: > 10 µM (inactive); GI50 [44]: > 10 µM (inactive); GI50 [45]: > 10 µM (inactive); GI50 [46]: > 10 µM (inactive); GI50 [47]: > 10 µM (inactive); GI50 [33]: > 10 µM (inactive); GI50 [48]: > 10 µM (inactive); GI50 [49]: > 10 µM (inactive); GI50 [36]: > 10 µM (inactive)
3 | Cc1ccc(S(=O)(=O)N2CCN3CCN(CCN(C)CCN4CCN(CC4)CCN(S(=O)(=O)c4ccc(C)cc4)CCN(S(=O)(=O)c4ccc(C)cc4)CCN(S(=O)(=O)c4ccc(C)cc4)CCN(S(=O)(=O)c4ccc(C)cc4)CCN4CCN(CCN(C)CCN5CCN(CC5)CCN(S(=O)(=O)c5ccc(C)cc5)CCN(S(=O)(=O)c5ccc(C)cc5)CCN(S(=O)(=O)c5ccc(C)cc5)CC2)CC4)CC3)cc1 | 0.248 µM (active) |  |  | 1.79 µM (inactive) |  |  | 0.254 µM (active) | 1.35 µM (inactive) | 1.63 µM (inactive) | 2.06 µM (inactive) | 0.766 µM (active) |  |  | 0.308 µM (active) | 1.05 µM (active) | 1.82 µM (inactive) | 1.14 µM (inactive) | 1.95 µM (inactive) | 1.87 µM (inactive) | 0.553 µM (active) | GI50 [40]: > 100 µM (inactive); GI50 [50]: 2.33 µM (inactive); GI50 [51]: 1.85 µM (inactive); GI50 [52]: 0.437 µM (active); GI50 [43]: 0.235 µM (active); GI50 [53]: 0.303 µM (active); GI50 [46]: 1.5 µM (inactive); GI50 [54]: 2.1 µM (inactive); GI50 [18]: 1.04 µM (active); GI50 [19]: 0.208 µM (active); GI50 [20]: 0.407 µM (active); GI50 [25]: 1.49 µM; GI50 [28]: 1.77 µM (inactive); GI50 [29]: 0.541 µM (active); GI50 [55]: 1.52 µM (inactive); GI50 [49]: 1.97 µM (inactive)

Source: ChEMBL document CHEMBL1201862, “PubChem BioAssay data set” (2004)
